Measurements taken from patent US11564913B2, “Compositions and methods for treating cancer” (Children's Hospital Medical Center, priority 2019, dated 2023).

How the values were obtained:
[1] = tested on: Vav3−/− leukemic cells expressing full-length Vav3; assay: Vav3 rescue, colony formation assay; type: cell-based, murine; conditions: 10 μM; 200 with vehicle
Source text: (§1) FIG. 15: Expression of transgenic Vav3 re-sensitizes Vav3-deficient cells to IODVA1. (A) Vav3 domain structure, calponin-homology (CH), acidic region (Ac), Dbl-homology (DH), pleckstrin-homology (PH), zinc finger (ZF), Src-homology 2 and 3 (SH2/SH3). (B) Representative histogram data of the cell cycle analysis of wild-type (Vav3^+/+) and Vav3-deficient (Vav3^−/−) p190-BCR-ABL1 leukemic bone marrow cells expressing empty vector, full-length Vav3 or ΔCH mutant and treated with vehicle control (black) or IODVA1 at 5 (red) or 10 μM (dark grey) for 18 h. (C) Quantification of the average number of colonies made by bone marrow wild-type and Vav3^−/− p190-BCR-ABL1 leukemic bone marrow cells expressing empty vector, full-length Vav3 or ΔCH mutant and treated with vehicle control (black) or IODVA1 at 1 (light salmon), 5 (red) and 10 μM (dark grey). *** p≤0.001. […]
(§2) For Vav3 rescue experiments, low density bone marrow cells from wild-type ([…]) or Vav3^−/− mice were transduced with bicistronic retroviral vector encoding p190 BCR-ABL1-IRES-YFP (yellow fluorescent protein) and YFP^+ cells were sorted 48 h post-transduction. […] Cell cycle was analyzed at 18 h post BrdU incorporation. […]

[2] = tested on: Vav3−/− leukemic cells expressing ΔCH Vav3; assay: Vav3 rescue, colony formation assay; type: cell-based, murine; conditions: 1, 5, and 10 μM
Source text: as §1, §2

[3] = tested on: Rac1Δ/Δ+Rac2−/− murine leukemic cells expressing p190-BCR-ABL; assay: Clonogenic ability of Rac-deficient leukemic cells; type: cell-based; conditions: 1 μM
Experimental: FIG. 13: IODVA1 decreases Rac activation and signaling. (A) Ba/F3 cells expressing p190-BCR-ABL1 were treated with IODVA1 (3 μM) as indicated and levels of active Rac (Rac-GTP) were assessed by pull-down using GST-PAK-GBD, followed by immunoblotting (upper panel) and densitometric quantification (lower panel). (B) Flow-cytometry analysis of pJNK, pS6, p4EBP, pPAK1, and pAKT of Ba/F3 cells expressing Mieg3 empty vector (light and dark blue) or p190-BCR-ABL1 (light and dark salmon) and treated with vehicle control or IODVA1 (3 μM) for 30 min. (C) Representative histogram data of the cell cycle analysis of Ba/F3 cells expressing p190-BCR-ABL and treated with vehicle control or IODVA1 (1, 3, and 10 μM) for 20 h. (D) Quantification of the average number of colonies of bone marrow wild-type (black) and Rac1^Δ/Δ+Rac2^−/− (red) p190-BCR-ABL1 leukemic cells treated with vehicle control or IODVA1 (IO1, 1 μM). ns—not significant, * p<0.05, ** p<0.01, *** p<0.001. […] (G) Ba/F3 cells expressing p190-BCR-ABL1 were treated with IODVA1 (3 μM) and levels of active Cdc42 (Cdc42-GTP) and Rho (Rho-GTP) were assessed by pull-down at the indicated times using GST-PAK-GBD and GST-Rhotekin respectively, followed by immunoblotting (left panel) and densitometric quantification (right panel). […]
To confirm that IODVA1 targets Rac-dependent pathways, we assessed its effects in a Rac2-null background. […]

SMILES: OC1(c2ccccn2)N=C(Nc2nc3ccccc3[nH]2)N=C1c1ccccn1 (stereo not drawn) [IODVA1, (Z)-2-((1H-benzo[d]imidazol-2-yl)imino)-4,5-di(pyridin-2-yl)-2,5-dihydro-1H-imidazol-5-ol]
- number of colonies [1]: 75 colonies
- response in colony formation [2]: respond less
- number of colonies formed [3]: did not alter
